Experimental data reported in PubChem BioAssay (NCI).
Several values for one entry are separate records, joined by “and”; a condition that tells them apart may be missing. Equal values may be shown once.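 The compound was tested at five concentrations on cells cultured in 96-well plates, with a 48-hour exposure period. GI50 = concentration required for 50% inhibition of growth. TGI denotes the concentration required for complete inhibition of growth.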

Assays:
Experiment in all cases: NCI anticancer screen, dose series, 48 h
EKVX NSCLC = tested on: EKVX NSCLC
786-0 renal = tested on: 786-0 renal
NCI-H226 lung = tested on: NCI-H226 lung
SNB-75 CNS = tested on: SNB-75 CNS
BT-549 breast = tested on: BT-549 breast
HCC-2998 colon = tested on: HCC-2998 colon
SF-295 CNS = tested on: SF-295 CNS
K-562 leukemia = tested on: K-562 leukemia
ACHN renal = tested on: ACHN renal
SK-MEL-2 melanoma = tested on: SK-MEL-2 melanoma

SMILES | GI50 (EKVX NSCLC) | TGI (EKVX NSCLC) | GI50 (786-0 renal) | TGI (786-0 renal) | GI50 (NCI-H226 lung) | TGI (NCI-H226 lung) | GI50 (SNB-75 CNS) | TGI (SNB-75 CNS) | GI50 (BT-549 breast) | TGI (BT-549 breast) | TGI (HCC-2998 colon) | GI50 (SF-295 CNS) | TGI (SF-295 CNS) | GI50 (K-562 leukemia) | TGI (K-562 leukemia) | GI50 (ACHN renal) | TGI (ACHN renal) | GI50 (SK-MEL-2 melanoma) | TGI (SK-MEL-2 melanoma) | GI50 (HCC-2998 colon)
CCN(CC)CCNC(=O)c1c(C)[nH]c(/C=C2\C(=O)Nc3ccc(F)cc32)c1C | > 10 µM and 5.27 µM and 8.38 µM | > 10 µM and 20 µM and 21.9 µM | 4.13 µM and 3.07 µM and 2.3 µM | > 10 µM and 6.16 µM and 7.76 µM | 5.22 µM and 5.72 µM and 8.46 µM | > 10 µM and 20 µM and 23.4 µM | 4.61 µM and 2.11 µM and 4.33 µM | > 10 µM and 4.55 µM and 14 µM | 4.84 µM and 3.32 µM and 3.67 µM | > 10 µM and 6.12 µM and 12.6 µM | > 10 µM and 7.03 µM and 3.06 µM | > 10 µM and 4.09 µM and 10.2 µM | > 10 µM and 8.23 µM and 24.1 µM | 2290 nM and 3220 nM and 1530 nM | > 10 µM and 9.75 µM and 5.57 µM | 1770 nM and 1530 nM and 1320 nM | > 10 µM and 6.48 µM and 9.5 µM | 1380 nM and 2100 nM and 4560 nM | 9.46 µM and 4.82 µM and 13.2 µM | –
O=S1(=O)NCCCN1CCNc1nccc(-c2c(-c3cccc(O)c3)nc3sccn23)n1 | 61.3 µM | > 100 µM | 14.4 µM | > 100 µM | 18.9 µM | 73.9 µM | 7.78 µM | > 100 µM | 24.3 µM | > 100 µM | > 92 µM | 51.9 µM | > 100 µM | 21600 nM | > 100 µM | 11800 nM | > 100 µM | 2570 nM | 9.66 µM | 31300 nM
CCCCCCCCCCCCCCCCCCNC(=O)[C@H]1CSC(c2cccs2)N1 (stereo partly specified) | – | – | 1.13 µM | 2.49 µM | 1.05 µM | 2.01 µM | 0.811 µM | 1.58 µM | 0.983 µM | 1.89 µM | 2.31 µM | 5.58 µM | > 50 µM | 761 nM | 2.14 µM | 30900 nM | > 50 µM | 957 nM | 1.79 µM | 1060 nM
Cn1c2ccccc2c2c(=O)c3ccccc3[nH]c21 | 44.1 µM | > 100 µM | 33.7 µM | > 100 µM | 38.8 µM | > 100 µM | 84.7 µM | > 100 µM | 73.3 µM | > 100 µM | – | 82.8 µM | > 100 µM | > 100000 nM | > 100 µM | 31100 nM | > 100 µM | > 100000 nM | > 100 µM | –
COc1ccccc1/C=C/C(=O)/C=C/c1ccccc1O | 1.75 µM | 5.63 µM | 1.6 µM | 3.41 µM | 1.71 µM | 4.12 µM | 0.964 µM | 2.57 µM | 1.39 µM | 3.01 µM | 2.64 µM | 1.99 µM | 5.23 µM | 441 nM | – | 1360 nM | 2.66 µM | – | – | 1290 nM
C=CCOC(=O)CC[N+]1=CCC(c2ccccc2)(c2ccccc2)O1 | – | > 100 µM | – | > 100 µM | – | > 100 µM | – | – | – | > 100 µM | > 100 µM | – | > 100 µM | – | > 100 µM | – | > 100 µM | – | > 100 µM | –
